Several values for one entry are separate records, joined by “and”; a condition that tells them apart may be missing. Equal entries are not always repeated. Structures can show the parent of a compound that is named as a salt.
Key:
VEGFR-3-TK = molecular target: T1, VEGFR-3-TK (Homo sapiens, UniProt P35916); test: Measurement of the tyrosine kinase activity of VEGFR-3 by ELISA (phosphorylation of poly Glu-Tyr); type: biochemical; conditions: VEGFR-3 ELISA, poly Glu-Tyr substrate, 30 μM ATP, 30 min at ambient temperature; read-out: IC50 (concentration which decreases the total activity of the enzyme by 50%)
T1 construct: purchased Cell Signaling 7790
Protocol: The compounds according to the invention have formed the subject of pharmacological assays which make it possible to determine their inhibitory effect on the VEGFR-3 enzyme.
Measurement of the Tyrosine Kinase Activity of VEGFR-3 by ELISA
The effect of the products is quantified by the concentration which decreases the total activity of the enzyme by 50% (IC50). For the determination of the IC50 values, the product is diluted in DMSO with a concentration range which extends from 3 to 1000 nM. The day before the manipulation, 125 μl of the poly Glu-Tyr substrate (250 μg/ml in 1×PBS without Ca^2+ or Mg^2+ or sodium bicarbonate) are deposited in each well of an ELISA plate (for example, an ELISA plate of the SIGMA Protein Tyrosine Kinase Assay kit, Ref. PTK-101). The plate is subsequently covered with an adhesive film and incubated overnight at 37° C. The following day, the wells are emptied by turning the plate over, washed by adding 300 μl of buffer solution (PBS+0.05% Tween 20) and dried by further incubation of the plate for 2 h at 37° C. A 90 μl reaction mixture is deposited onto each well. This mixture comprises the 1× kinase buffer to which 30 μM of ATP and the inhibitor at the desired concentration have been added. […]

T1 sequence (P35916 800-1297 limits assumed): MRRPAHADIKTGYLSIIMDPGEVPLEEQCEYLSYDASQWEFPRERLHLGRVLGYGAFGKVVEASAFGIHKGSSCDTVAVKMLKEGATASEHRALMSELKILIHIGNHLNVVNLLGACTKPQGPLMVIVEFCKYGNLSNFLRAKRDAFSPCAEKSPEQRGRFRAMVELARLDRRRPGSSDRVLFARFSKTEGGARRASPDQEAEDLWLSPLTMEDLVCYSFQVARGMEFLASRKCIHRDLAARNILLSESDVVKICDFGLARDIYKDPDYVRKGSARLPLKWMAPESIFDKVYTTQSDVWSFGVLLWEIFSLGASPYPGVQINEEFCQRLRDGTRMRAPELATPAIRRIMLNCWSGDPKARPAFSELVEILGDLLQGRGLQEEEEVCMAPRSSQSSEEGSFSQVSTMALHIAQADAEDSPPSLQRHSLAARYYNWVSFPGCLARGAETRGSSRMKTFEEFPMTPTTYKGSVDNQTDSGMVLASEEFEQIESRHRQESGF

| Structure (SMILES) | IC50 (VEGFR-3-TK) [nM] | melting point |
| --- | --- | --- |
| CCn1c(N)c(C(=O)NC)c(=O)c2ccc(C#CCOC)nc21 [Compound 5, 2-amino-1-ethyl-7-(3-methoxyprop-1-yn-1-yl)-N-methyl-4-oxo-1,4-dihydro-1,8-naphthyridine-3-carboxamide] | 343 | 233 °C |
| CCn1c(N)c(C(=O)NC)c(=O)c2ccc(C#CC(C)(C)N)nc21 [Compound 4, 2-Amino-7-(3-amino-3-methylbut-1-yn-1-yl)-1-ethyl-N-methyl-4-oxo-1,4-dihydro-1,8-naphthyridine-3-carboxamide hydrochloride] | 451 |  |
| CCn1c(N)c(C(=O)NC)c(=O)c2ccc(C#CC(C)(COC)OC)nc21 (racemic) [Compound 1, (±)-2-Amino-7-(3,4-dimethoxy-3-methylbut-1-yn-1-yl)-1-ethyl-N-methyl-4-oxo-1,4-dihydro-1,8-naphthyridine-3-carboxamide] |  | 185 to 187 °C |
| CCn1c(N)c(C(=O)NC)c(=O)c2ccc(C#CCNC(=O)OC)nc21 [Compound 2, Methyl {3-[7-amino-8-ethyl-6-(methylcarbamoyl)-5-oxo-5,8-dihydro-1,8-naphthyridin-2-yl]prop-2-yn-1-yl}carbamate] |  | 255 °C and 250 °C |
| CCn1c(N)c(C(=O)NC)c(=O)c2ccc(C#CC(C)(C)OCC(N)=O)nc21 [Compound 6, 2-Amino-7-[3-(2-amino-2-oxoethoxy)-3-methylbut-1-yn-1-yl]-1-ethyl-N-methyl-4-oxo-1,4-dihydro-1,8-naphthyridine-3-carboxamide] |  | 204 °C |
| CCn1c(N)c(C(=O)NC)c(=O)c2ccc(C#CC(C)(C)N)nc21 (as salt: hydrochloride) [Compound 4, 2-Amino-7-(3-amino-3-methylbut-1-yn-1-yl)-1-ethyl-N-methyl-4-oxo-1,4-dihydro-1,8-naphthyridine-3-carboxamide hydrochloride] |  | 293 °C |

From patent US8586602B2, “Derivatives of 7 alkynyl-1,8 naphthyridones, preparation method thereof and use of same in therapeutics” (Sanofi, priority 2007, dated 2013)
